Source: patent US4808587A, “5-substituted pyrido[2,3-d]pyrimidine-2,4-diones” (Nippon Zoki Pharmaceutical Co., Ltd., priority 1986, dated 1989)

Columns and labels:
[1] = test system: PCA (Passive Cutaneous Anaphylaxis) reaction; assay: Anti-allergic effect: PCA (Passive Cutaneous Anaphylaxis) reaction in rats; assay type: in vivo, Wister-strain male rats; conditions: Rattus norvegicus, oral, 1 hour before antigen challenge, dye leakage at 620 nm
Procedure: PCA (Passive Cutaneous Anaphylaxis) reaction in rats was taken as an index to an anti-allergic effect of the compound of the present invention.
In order to perform sensitization, anti-DNP-Asc (dinitrophenylated Ascaris extracts) serum diluted with saline was injected intradermally at 4 sites on the shaved back of groups of 6 Wister-strain male rats (6 weeks of age). 1 hour after oral administration of the test drug, the mixture of equivalent amount of DNP-Asc (5 mg/ml) and 2% Evans blue were intravenously injected to generate PCA reaction. 30 minutes thereafter, rats were killed by decapitation and exsanguinated. The skin was opened in order to evaluate the leakage of blue dye. The obtained skin was dissolved in 2N potassium hydroxide, then 2N phosphoric acid and acetone were added thereto. The amount of dye was determined by measurement of absorbance at 620 nm after centrifugation.

[2] = Acute toxicity test (oral, LD50); conditions: mouse, in vivo
Procedure: The test compounds were orally administered to groups of 5 ICR-strain male mice. LD50 value of the compound of the present invention was calculated by the LitchfieldWilcoxon's method based on mortality for 14 days after drug administration.

SMILES	inhibition in vivo at 20 mg/kg [1]	LD50 at 336 h [2]
Cn1c(=O)c2cccnc2n(C)c1=O [Compound 2, 1,3-dimethylpyrido[2,3-d]pyrimidine-2,4-dione]	51.2%	
Cn1c(=O)c2c(N)ccnc2n(C)c1=O [Compound 4, 5-amino-1,3-dimethylpyrido[2,3-d]pyrimidine-2,4-dione]	68.7%	850 mg/kg
CCn1c(=O)c2c(N)ccnc2n(CC)c1=O [Compound 5, 5-amino-1,3-diethylpyrido[2,3-d]pyrimidine-2,4-dione]	79.2%	> 1000 mg/kg
CNc1ccnc2c1c(=O)n(C)c(=O)n2C [Compound 7, 5-methylamino-1,3-dimethylpyrido[2,3-d]pyrimidine-2,4-dione]	73.7%	1050 mg/kg
CCn1c(=O)c2c(NC)ccnc2n(CC)c1=O [Compound 8, 5-methylamino-1,3-diethylpyrido[2,3-d]pyrimidine-2,4-dione]	76.4%	
C=CCNc1ccnc2c1c(=O)n(C)c(=O)n2C [Compound 9, 5-allylamino-1,3-dimethylpyrido[2,3-d]pyrimidine-2,4-dione]	67.9%	> 1000 mg/kg
CC(C)Nc1ccnc2c1c(=O)n(C)c(=O)n2C [Compound 10, 5-isopropylamino-1,3-dimethylpyrido[2,3-d]pyrimidine-2,4-dione]	86.6%	850 mg/kg
Cn1c(=O)c2c(NO)ccnc2n(C)c1=O [Compound 11, 5-hydroxyamino-1,3-dimethylpyrido[2,3-d]pyrimidine-2,4-dione]	74%	> 1000 mg/kg
Cn1c(=O)c2c(O)ccnc2n(C)c1=O [Compound 14, 5-hydroxy1,3-dimethylpyrido[2,3-d]pyrimidine-2,4-dione]	49.9%	
Cn1c(=O)c2ccc(N)nc2n(C)c1=O [Compound 15, 7-amino-1,3-dimethylpyrido[2,3-d]pyrimidine-2,4-dione]	68.7%	> 1200 mg/kg
Cn1c(=O)c2cc(N)cnc2n(C)c1=O [Compound 17, 6-amino-1,3-dimethylpyrido[2,3-d]pyrimidine-2,4-dione]	56.2%	
Cn1c(=O)c2[nH]cnc2n(C)c1=O [Theophylline, reference compound]	57.9%	
